In patent US20050107338A1, “Nutritional supplement enhancing mitochondrial function” (priority 2003, published 2005):

Assays:
COX and SDH = COX and SDH levels in mitochondria of dosed rats; format: in vivo; conditions: daily dosing per Table 2, after one month, COX and SDH averaged, vs control group 7
Excerpt: A group of 154 rats are evenly divided between a control group and six study groups, resulting in 22 animals per group.
The change from baseline relative to the last study month in the levels of COX and SDH is compared among the seven study groups using one-way analysis of variance (ANOVA). The Dunnett t-test procedure is used to compare the control group to each of the six treatment groups. As a secondary analysis to evaluate for trends across time, repeated measures of ANOVA are to be used to compare the groups regarding the change in the COX and SDH levels over the three-month time intervals. […]
The assay for SDH measures the reduction of 2,6-dichlorophenolindophenol (DCPIP) when coupled to […] reduction of decylubiquinone (DB), monitoring the absorbance at 600 minus […] (extinction coefficient 19.1 mM^−1cm^−1) (Singer T P, 1976). The reduction of DCPIP is measured at 600 minus 520 nm in a 1 ml cuvette at 30° C. […] Antimycin A (2 μg/ml), rotenone (2 μg/ml), KCN (2 mM), and 50 μM DCPIP are added to the sample and the blank rate is recorded for 1 minute. The reaction is initiated by the addition of 50 uM DB and change in absorbance is monitored for 3 minutes.
The activity of cytochrome-c oxidase (COX) is measured by following the oxidation of reduced cytochrome c at 550 minus 540 nm (extinction coefficient 19.0 mM^−1 cm^−1) (Errede B, et al. 1996). […]

[1] = Age-related hearing loss in subjects treated separately with the compounds; format: in vivo; conditions: subjects treated separately with each compound
complex III = target: T1, complex III (Rattus norvegicus, UniProt P00159); conditions: by competition with coenzyme Q; cited from earlier work
T1 construct: decrease complex III activity in rat brain; host or cells: rat brain (mitochondria)

[2] = test system: mitochondrial transcripts; conditions: pretreatment of senescent rats; time and dose-dependent; cited from earlier work

SMILES | increase in COX and SDH relative to the control group (COX and SDH) [%] | age-related hearing loss [1] | complex III activity in rat brain (complex III) | levels of mitochondrial transcripts [2]
O=C(O)CCCCC1CCSS1 (stereo not shown) [Study group 1, lipoic acid] | 10 | improvement | – | –
CC(=O)N[C@@H](CS)C(=O)O [Study group 2, N-acetyl cysteine, reference compound] | 15 | – | – | –
Oc1ccc(C=Cc2cc(O)cc(O)c2)cc1 [Study group 3, resveratrol] | – | improvement | decrease | –
CC(=O)O[C@H](CC(=O)[O-])C[N+](C)(C)C [acetyl-L-carnitine] | – | improvement | – | bring back the levels of mitochondrial transcripts to adult levels
